The source of these data is US8067424B2, “Selective inhibitors for cyclin-dependent kinases” (Emory University, priority 2007, dated 2011).

Like-named read-outs stand apart in the source and are kept apart here.

Assay type in all cases: biochemical
For one assay, the target named is T1, MST2 (Homo sapiens, UniProt Q13188).
T1 sequence (Q13188 1-491): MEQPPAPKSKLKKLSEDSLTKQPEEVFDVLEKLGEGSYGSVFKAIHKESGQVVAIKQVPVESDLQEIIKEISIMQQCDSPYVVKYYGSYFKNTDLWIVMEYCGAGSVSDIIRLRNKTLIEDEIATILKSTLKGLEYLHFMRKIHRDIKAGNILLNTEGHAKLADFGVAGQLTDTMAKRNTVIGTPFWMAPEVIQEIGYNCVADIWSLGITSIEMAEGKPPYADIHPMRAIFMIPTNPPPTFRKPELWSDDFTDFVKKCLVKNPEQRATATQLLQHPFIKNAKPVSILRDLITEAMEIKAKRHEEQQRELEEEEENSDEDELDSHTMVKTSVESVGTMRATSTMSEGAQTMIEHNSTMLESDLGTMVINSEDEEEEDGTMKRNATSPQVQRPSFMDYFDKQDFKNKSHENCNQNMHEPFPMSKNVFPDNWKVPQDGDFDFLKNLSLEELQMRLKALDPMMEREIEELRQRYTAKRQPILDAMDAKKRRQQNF
Put plainly: Kinase screen: MST2 assay. Here is the method: (§1) Generally, the same procedure was used for all assays. Since the total assay volume was 25.5 microliters, 0.5 microliters of inhibitors at 51× assay concentration were added to the plates before any other addition.
(§2) The basic procedure was to add 0.5 microliters inhibitor/control in DMSO to plate. Fifteen microliters of enzyme/substrate/buffer mix were added and incubated for 5 min. Ten microliters MgATP at the relevant concentration were added and incubated for 30 min. The assay was stopped by adding 5 microliters of 3% orthophosphoric acid. The assay was transferred to a p81 filter plate and read in a scintillation counter of 30 sec/well. Note that this assay procedure was not followed for MKK1, which instead involved a two-step assay, and PKC alpha, which required the addition of lipid vesicles.
MST2 assay: MST2 (5-20 mU diluted in 50 mM Tris pH 7.5, 0.1 mM EGTA, 0.1% b-mercaptoethanol, 100 μM Vanadate) was assayed against MBP in a final volume of 25.5 μl containing 50 mM Tris pH 7.5, 0.05% b-mercaptoethanol, 0.33 mg/ml MBP, 10 mM magnesium acetate and 0.02 mM [33P-g-ATP] (50-1000 cpm/pmole) and incubated for 30 min at room temperature. Assays were stopped by addition of 5 μl of 0.5 M (3%) orthophosphoric acid and then harvested onto P81 Unifilter plates with a wash buffer of 50 mM orthophosphoric acid.

For another assay, the target named is RSK2 (Homo sapiens, UniProt P51812). Put plainly: Kinase screen: MAPKAP-K1b/RSK2 assay. On the procedure:
as §1, §2
MAPKAP-K1b/RSK2 assay: MAPKAP-K1b (5-20 mU diluted in 20 mM MOPS pH 7.5, 1 mM EDTA, 0.01% Brij35, 5% glycerol, 0.1% b-mercaptoethanol, 1 mg/ml BSA) was assayed against substrate peptide ([…]) (SEQ ID NO: 3) in a final volume of […] containing 50 mM Na-b-glycerophosphate (pH 7.5), 0.5 mM EDTA, 30 μM substrate peptide, 10 mM magnesium acetate and 0.05 mM [33P-g-ATP] (50-1000 cpm/pmole) and incubated for 30 min at room temperature. Assays were stopped by addition of 5 μl of 0.5 M (3%) orthophosphoric acid and then harvested onto P81 Unifilter plates with a wash buffer of 50 mM orthophosphoric acid.

A further assay has as its target PIM3 (Homo sapiens, UniProt Q86V86). Put plainly: Kinase screen: PIM3 assay. On the procedure: as §1, §2
PIM3 assay: PIM3 (5-20 mU diluted in 50 mM Tris pH 7.5, 0.1 mM EGTA, 0.1% b-mercaptoethanol, 1 mg/ml BSA) was assayed against a substrate peptide ([…]) (SEQ ID NO: 23) in a final volume of 25.5 μl containing 50 mM Tris pH 7.5, 0.05% b-mercaptoethanol, 300 μM substrate peptide, 10 mM magnesium acetate and 0.02 mM [33P-g-ATP] (50-1000 cpm/pmole) and incubated for 30 min at room temperature. Assays were stopped by addition of 5 μl of 0.5 M (3%) orthophosphoric acid and then harvested onto P81 Unifilter plates with a wash buffer of 50 mM orthophosphoric acid.

For a further assay, the target named is T2, ERK8 (Homo sapiens, UniProt Q8TD08).
T2 sequence (Q8TD08 1-544): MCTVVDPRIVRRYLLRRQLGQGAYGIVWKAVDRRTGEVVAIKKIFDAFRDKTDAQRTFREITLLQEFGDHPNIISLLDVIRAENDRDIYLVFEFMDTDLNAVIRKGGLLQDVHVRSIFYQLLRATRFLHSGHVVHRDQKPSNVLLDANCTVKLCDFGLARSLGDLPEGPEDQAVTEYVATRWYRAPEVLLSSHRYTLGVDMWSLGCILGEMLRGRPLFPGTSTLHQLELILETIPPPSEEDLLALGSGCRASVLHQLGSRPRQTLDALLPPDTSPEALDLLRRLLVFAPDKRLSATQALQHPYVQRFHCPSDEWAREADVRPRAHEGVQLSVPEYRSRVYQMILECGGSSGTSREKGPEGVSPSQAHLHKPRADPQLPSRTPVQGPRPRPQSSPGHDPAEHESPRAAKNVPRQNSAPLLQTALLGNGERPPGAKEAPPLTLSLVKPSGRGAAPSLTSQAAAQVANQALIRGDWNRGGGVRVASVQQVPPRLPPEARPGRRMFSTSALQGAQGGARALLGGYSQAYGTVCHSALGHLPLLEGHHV
Put plainly: Kinase screen: ERK8 assay. Here is the method:
as §1, §2
ERK8 assay: 5-20 mU of ERK8 (diluted in 50 mM Tris (pH 7.5), 0.1 mM EGTA, 1 mg/ml BSA, 0.1%, b-Mercaptoethanol) was assayed against MBP in a final volume of 25.5 μl containing 50 mM Tris (pH 7.5), 0.1 mM EGTA, 0.1%, b-Mercaptoethanol, 0.33 mg/ml MBP, 10 mM magnesium acetate and 0.005 mM [33P-g-ATP] (500-1000 cpm/pmole) and incubated for 30 mins at room temperature. Assays were stopped by addition of 5 μl of 0.5M (3%) orthophosphoric acid. Assays were harvested onto P81 Unifilter plates using a wash buffer of 50 mM orthophosphoric acid.

Where [1] appears, read: 10 micromolar compound, read-out: mean activity remaining (as a percentage of the original activity), MST2.
The mark [2] stands for this setting: 10 micromolar compound, read-out: mean activity remaining (as a percentage of the original activity), RSK2.
Where [3] appears, read: 10 micromolar compound, read-out: mean activity remaining (as a percentage of the original activity), PIM3.
[4] abbreviates: 10 micromolar compound, read-out: mean activity remaining (as a percentage of the original activity), ERK8.

Sequence of RSK2 (P51812 whole entry, species assumed): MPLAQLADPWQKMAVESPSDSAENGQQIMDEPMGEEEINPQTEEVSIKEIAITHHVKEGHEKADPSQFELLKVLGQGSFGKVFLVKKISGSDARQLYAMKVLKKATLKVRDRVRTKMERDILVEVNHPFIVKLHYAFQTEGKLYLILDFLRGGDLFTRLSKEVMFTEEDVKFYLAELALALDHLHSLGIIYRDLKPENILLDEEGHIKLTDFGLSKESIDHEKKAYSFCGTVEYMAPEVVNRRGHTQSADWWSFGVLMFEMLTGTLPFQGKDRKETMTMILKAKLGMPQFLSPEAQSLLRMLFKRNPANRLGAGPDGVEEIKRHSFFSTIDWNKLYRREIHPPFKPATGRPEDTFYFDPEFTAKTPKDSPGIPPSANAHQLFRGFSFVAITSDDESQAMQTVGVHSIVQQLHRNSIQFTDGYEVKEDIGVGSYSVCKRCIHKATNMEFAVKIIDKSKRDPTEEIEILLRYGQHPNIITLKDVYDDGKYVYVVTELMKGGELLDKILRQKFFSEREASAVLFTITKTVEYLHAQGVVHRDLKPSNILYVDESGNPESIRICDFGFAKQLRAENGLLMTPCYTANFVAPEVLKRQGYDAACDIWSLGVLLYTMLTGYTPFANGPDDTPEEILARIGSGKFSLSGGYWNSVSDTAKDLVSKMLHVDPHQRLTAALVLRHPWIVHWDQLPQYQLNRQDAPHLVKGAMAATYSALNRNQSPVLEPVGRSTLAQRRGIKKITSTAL

The term remaining activity denotes the signal under treatment as a percentage of the control signal. Turning to `CC(C)c1cnn2c(NCc3ccccc3)cc(NCCCCCCCN)nc12` [BS-181], the remaining activity at 10 µM on MST2 (MST2, 10 μM, read-out: Mean Remaining Enzyme Activity (%)) was determined as 112%; on RSK2 (RSK2, 10 μM, read-out: Mean Remaining Enzyme Activity (%)) it was 55%; on PIM3 (PIM3, 10 μM, read-out: Mean Remaining Enzyme Activity (%)) it was 78%; at ERK8 (ERK8, 10 μM, read-out: Mean Remaining Enzyme Activity (%)) it was 32%.

Regarding `C=C[C@H](CO)Nc1cc(NCc2ccccc2)n2ncc(C(C)C)c2n1` [ICEC0065], the remaining activity at 10 µM at MST2 (setting [1]) is 87%; on RSK2 (setting [2]), 84%; at PIM3 (setting [3]), 100%; at ERK8 (setting [4]), 28%.

Turning to `CC(C)c1cnn2c(NCc3ccccc3)cc(N[C@@H](CO)[C@H](O)CO)nc12` [ICEC0318, (3S)-3-(7-(Benzylamino)-3-isopropylpyrazolo[1,5-a]pyrimidin-5-ylamino)butane-1,2,4-triol], the remaining activity at 10 µM at MST2 (setting [1]) was 86%; at RSK2 (setting [2]), 90%; at PIM3 (setting [3]), 101%; on ERK8 (setting [4]), 26%.

`CC(C)c1cnn2c(NCc3ccccc3F)cc(NCCCCCN)nc12` [ICEC-0232]: the “mean activity remaining (as a percentage of the original activity), MST2” value on MST2 (10 micromolar compound) is listed as 82%. In addition, the “mean activity remaining (as a percentage of the original activity), RSK2” value on RSK2 (10 micromolar compound) amounted to 19%. The “mean activity remaining (as a percentage of the original activity), PIM3” value at PIM3 (10 micromolar compound) stood at 76%. In addition, the “mean activity remaining (as a percentage of the original activity), ERK8” value on ERK8 (10 micromolar compound) turned out to be 23%.

For the molecule `CC[C@H](CO)Nc1cc(NCc2ccccc2)n2ncc(C(C)C)c2n1` [ICEC0067], the remaining activity at 10 µM on MST2 (setting [1]) is 89%; at RSK2 (setting [2]), 76%; at PIM3 (setting [3]) it was 96%; at ERK8 (setting [4]), 23%.
